Results as given in patent US20160194358A1, “LINEAR PEPTIDE ANTIBIOTCS” (priority 2013, published 2016).
≈ marks a conversion by molar mass, not a printed value. Where two headings read alike, the source gives them in different places. Where a SMILES comes first, the peptide text is derived from it. [ ]: non-standard residue; d: D form. The star is where a group is joined. boroAla((+)-pinanediol) = C[C@H](N*)B1O[C@@H]2C[C@@H]3C[C@@H](C3(C)C)[C@]2(C)O1; Benzoyl(4-(4-Cl-Ph)) = O=C(c1ccc(-c2ccc(Cl)cc2)cc1)*; Ethanesulfonyl(2-NHDecyl) = CCCCCCCCCCNCCS(=O)(=O)*; X31 = O=S(=O)(c1ccc(-c2ccccc2)cn1)*; X29 = CCCCCCCCCCN(C)CCS(=O)(=O)*; X23 = O=C(c1ccc(C#CC#CCCO)cc1)*; X22 = C[C@H](N*)C(=O)C(=O)O; Decanoyl = CCCCCCCCCC(=O)*; Dab = NCC[C@H](N)C(=O)O

Legend:
[1] = system: Escherichia coli strain MC4100 IMP-4213, which harbors an LptD mutation; conditions: E. coli MC4100 IMP-4213; 35° C., 22 hours
Procedure: (§1) In vitro antimicrobial activity of each compound was determined by measuring minimal inhibitor concentrations (MICs) using the broth micro-dilution technique as approved by the Clinical and Laboratory Standards Institute (CLSI). Antibacterial activity was measure against two strains of bacteria: 1) methicillin resistant Staphylococcus aureus (MRSA) strain USA300 (NRS384) and 2) Escherichia coli strain MC4100 IMP-4213, which harbors an LptD mutation. Bacterial inocula were prepared by scraping cells into 1 mL of testing media (cation adjusted Mueller Hinton Broth supplemented with 0.002% v/v Tween-80) and diluting to a final OD600nm of 0.01.
(§2) Test compounds were prepared in DMSO at a concentration of 10 mg/ml. These compound stocks were diluted into testing media at a concentration of 64 μg/ml and 9 serial 1:2 dilutions were made in the same media, in 96-well U bottom microtiter dishes. Bacterial inocula were added to the two fold serial dilutions of test compounds to a final density of OD OD600nm of 0.0005 and incubated stationarily at 35° C. for 22 hours, after which the plates were examined visually.

[2] = system: methicillin resistant Staphylococcus aureus (MRSA) strain USA300 (NRS384)
Procedure: as §1, §2

[3] = MRSA USA300 (NRS384), 35° C., 22 hours

Structure (SMILES): CCCCCCCCCC(=O)NCC(=O)N[C@@H](CCCCN)C(=O)N[C@H](C(=O)N[C@@H](C)C(=O)N[C@@H](CCCCN)C(=O)N[C@@H](C)B1O[C@@H]2C[C@@H]3C[C@@H](C3(C)C)[C@]2(C)O1)[C@@H](C)O [Compound 259] (Decanoyl-GKTAK-{boroAla((+)-pinanediol)})
- MIC (μg/mL) E. coli [1]: 64 µg/mL (≈ 74.2 µM)
- MIC (μg/mL) S. aureus [2, 3]: 2.4 µg/mL (≈ 2.78 µM)

Structure (SMILES): CCCCCCCCCCNCCS(=O)(=O)N[C@@H](CCCCN)C(=O)N[C@H](C(=O)N[C@@H](C)C(=O)N[C@@H](CCCCN)C(=O)N[C@@H](C)B1O[C@@H]2C[C@@H]3C[C@@H](C3(C)C)[C@]2(C)O1)[C@@H](C)O [Compound 237] ({Ethanesulfonyl(2-NHDecyl)}-KTAK-{boroAla((+)-pinanediol)})
- MIC (μg/mL) E. coli [1]: 32 µg/mL (≈ 35.6 µM)
- MIC (μg/mL) S. aureus [2, 3]: 0.35 µg/mL (≈ 0.389 µM)

Structure (SMILES): C[C@H](NC(=O)[C@H](CCCCN)NC(=O)[C@H](C)NC(=O)[C@@H](NC(=O)[C@H](CCN)NC(=O)c1ccc(C#CC#CCCO)cc1)[C@@H](C)O)B1O[C@@H]2C[C@@H]3C[C@@H](C3(C)C)[C@]2(C)O1 [Compound 265] (X23-[Dab]TAK-{boroAla((+)-pinanediol)})
- MIC (μg/mL) E. coli [1]: 16 µg/mL (≈ 19.5 µM)
- MIC (μg/mL) S. aureus [2, 3]: 16 µg/mL (≈ 19.5 µM)

Structure (SMILES): CCCCCCCCCCNCCS(=O)(=O)N[C@@H](CCN)C(=O)N[C@H](C(=O)N[C@@H](C)C(=O)N[C@@H](CCCCN)C(=O)N[C@@H](C)C(=O)C(=O)O)[C@@H](C)O [Compound 253] ({Ethanesulfonyl(2-NHDecyl)}-[Dab]TAK-X22)
- MIC (μg/mL) E. coli [1]: 64 µg/mL (≈ 83.7 µM)
- MIC (μg/mL) S. aureus ([2]; USA300, 22 h): 1 µg/mL (≈ 1.31 µM)

Structure (SMILES): C[C@H](NC(=O)[C@@H](NC(=O)[C@H](CCN)NC(=O)c1ccc(-c2ccc(Cl)cc2)cc1)[C@@H](C)O)C(=O)N[C@@H](CCCCN)C(=O)N[C@@H](C)C(=O)C(=O)O [Compound 247] ({Benzoyl(4-(4-Cl-Ph))}-[Dab]TAK-X22)
- MIC (μg/mL) E. coli [1]: >64 µg/mL
- MIC (μg/mL) S. aureus [2, 3]: 3.2 µg/mL (≈ 4.37 µM)

Structure (SMILES): CCCCCCCCCCN(C)CCS(=O)(=O)N[C@@H](CCCCN)C(=O)N[C@H](C(=O)N[C@@H](C)C(=O)N[C@@H](CCCCN)C(=O)N[C@@H](C)B1O[C@@H]2C[C@@H]3C[C@@H](C3(C)C)[C@]2(C)O1)[C@@H](C)O [Compound 245] (X29-KTAK-{boroAla((+)-pinanediol)})
- MIC (μg/mL) E. coli [1]: 32 µg/mL (≈ 35 µM)
- MIC (μg/mL) S. aureus [2, 3]: 0.35 µg/mL (≈ 0.383 µM)

Structure (SMILES): CCCCCCCCCCNCCN[C@@H](CC(N)=O)C(=O)N[C@H](C(=O)N[C@@H](C)C(=O)N[C@@H](CCCCN)C(=O)N[C@@H](C)B(O)O)[C@@H](C)O [Compound 243]
- MIC (μg/mL) E. coli [1]: >64 µg/mL
- MIC (μg/mL) S. aureus ([2]; USA300, 22 h): 1.4 µg/mL (≈ 2.04 µM)

Structure (SMILES): C[C@H](NC(=O)[C@H](CCCCN)NC(=O)[C@H](C)NC(=O)[C@@H](NC(=O)[C@H](CCCCN)NS(=O)(=O)c1ccc(-c2ccccc2)cn1)[C@@H](C)O)B1O[C@@H]2C[C@@H]3C[C@@H](C3(C)C)[C@]2(C)O1 [Compound 231] (X31-KTAK-{boroAla((+)-pinanediol)})
- MIC (μg/mL) E. coli [1]: >64 µg/mL
- MIC (μg/mL) S. aureus [2, 3]: 32 µg/mL (≈ 36.8 µM)

Structure (SMILES): C[C@H](NC(=O)[C@H](CCCCN)NC(=O)[C@H](C)NC(=O)[C@@H](NC(=O)C(NC(=O)c1ccc(-c2ccc(Cl)cc2)cc1)C1CNC1)[C@@H](C)O)B1O[C@@H]2C[C@@H]3C[C@@H](C3(C)C)[C@]2(C)O1 (some centres unmarked) [Compound 282]
- MIC (μg/mL) E. coli [1]: 16 µg/mL (≈ 18.8 µM)
- MIC (μg/mL) S. aureus [2, 3]: 8 µg/mL (≈ 9.41 µM)

Structure (SMILES): CCCCc1ccc(-c2ccc(C(N[C@@H](CCCCN)C(=O)N[C@H](C(=O)N[C@@H](C)C(=O)N[C@@H](CC(C)C)C(=O)N[C@@H](C)B3O[C@@H]4C[C@@H]5C[C@@H](C5(C)C)[C@]4(C)O3)[C@@H](C)O)C(F)(F)F)cc2)cc1 (some centres unmarked) [Compound 277]
- MIC (μg/mL) E. coli [1]: 4 µg/mL (≈ 4.32 µM)
- MIC (μg/mL) S. aureus [2, 3]: 1.4 µg/mL (≈ 1.51 µM)
